We go through three molecules from paper PMC9896555, “Cyclic Acetals as Novel Long-Lasting Mosquito Repellents” (Journal of Agricultural and Food Chemistry, 2023).

The test system of assay [1] is Aedes albopictus. As to the kind of experiment: Effective dose / protection efficacy, human-bait technique. It counts as in vivo. The conditions noted are these: for pest or weed control at 0.081 µg/cm2, 0.081 µg/cm2 / pest or weed control at 0.17 µg/cm2, 0.17 µg/cm2 / pest or weed control at 0.33 µg/cm2, 0.33 µg/cm2 / pest or weed control at 0.5 µg/cm2, 0.5 µg/cm2 / pest or weed control at 0.83 µg/cm2, 0.83 µg/cm2 / pest or weed control at 1.7 µg/cm2, 1.7 µg/cm2 / pest or weed control at 8.3 µg/cm2, 8.3 µg/cm2 / pest or weed control at 16.7 µg/cm2, 16.7 µg/cm2 / pest or weed control at 83.3 µg/cm2, 83.3 µg/cm2: Aedes albopictus, topical, read-out: Protection efficacy PE%; for Protection efficacy (dose to obtain complete protection (100%) from bite attempts): applied on skin of volunteers, 3 min exposure; for 100% PE: Table S1. The protocol:
The repellence of DEET, Icaridin (both supplied by Istituto Biochimico VEBI s.r.l.), acetals, and the synthesized hydroxyacetals was evaluated againstAedes albopictususing the human-bait technique (to simulate the condition of human skin on which repellents will be applied).[22]A. albopictuswas reared and tested at 26 ± 2 °C, ≥60 ± 10% relative humidity (RH), and at 14:10 h light/dark photoperiod, within Plexiglas cylindrical laboratory cages (35 cm diameter, 60 cm length) with one end closed by a net. During the tests, cages contained ≈150 nulliparous, 4–7 day-old, nonblood-fed females. For each compound to be tested, up to six volunteers participated in the trial.
The study was approved by the Regional Ethics Committee for Clinical Trials of Tuscany Region with the registered number 20383. Volunteers agreed to take part in the experiments following informed consent; only volunteers non-allergic to mosquito bites participated in the trials. On the day of the bioassay, they had no contact with lotions, perfumes, oils, or perfumed soaps. They wore latex surgical gloves, in which a dorsal square area of 30 cm^2 was cut open. Mosquito-exposed skin was treated with 50 μL of ethanol, as the negative hand control. The other hand was treated with 50 μL of the tested compounds in ethanol solution (dosages corresponding to 0.081, 0.17, 0.33, 0.5, 0.83, 1.7, 8.3, 16.7, and 83.3 μg/cm^2). Both hands were presented in the same test cage. The number of probing mosquitoes in a 3 min exposure period was recorded. During each test, the control and the treated hand were presented interchanged to verify the mosquitoes’ readiness to bite. Trials were considered valid only if at least 30 mosquitoes performed probing behavior on the control hand before each repellent dosage was tested. The protection efficacy (PE %) obtained from all replicates was calculated, according to the WHO guidelines[31] using this formula [drawing 1]
To evaluate the protection efficacy, volunteers applied increasing doses of the compounds to the skin on the back of their hands (30 cm^2, while the rest was covered with a rubber glove) and counted the number of mosquitoes attempting to bite; the solvent only was used on the control hand. The protection (percentage of repelled mosquitoes) was calculated as reported in the Material and Methods section.

The test system of assay [2] is Aedes albopictus. As to the kind of experiment: Protection time at 0.17 mg/cm2, human-bait technique. It counts as in vivo. The conditions noted are these: for pest or weed control at 0.17 mg/cm2, 0.17 mg/cm2: Aedes albopictus, topical, read-out: Protection time PE%; for Average PT >95% (% coefficient of variation) / Estimated 100% PT (complete protection time, mean±SE): at the dose of 0.17mg/cm2; for Estimated 100% PT (complete protection time, mean±SE): Kaplan–Meier estimate; for Protection time (95% protection): dose of 0.17 mg/cm^2, tests ended after 8 h. The protocol:
To evaluate the protection time of derivatives, the PE % was measured with 100 μL of a 5% ethanol solution, corresponding to 0.17 mg/cm^2 of exposed skin, under the same laboratory conditions. Mosquito-exposed skin was treated with 100 μL of ethanol, as the negative hand control. For each volunteer (up to 8), the test was performed every hour, up to 8 h from the application. The protection time of DEET and Icaridin was measured under the same conditions. Since these trials were run in parallel with those aimed to profile the cytotoxicity of the compounds (paragraph 2.6), we interrupted the experiments for those compounds showing to have higher cytotoxicity than Icaridin and DEET as soon as the results were available. For this reason, the number of volunteers differs among the compounds.
The average time until protection which was higher than 95% protection time was considered for each compound. Moreover, for the compounds tested on at least three volunteers, the complete (100%) protection time was also estimated (SPSS 28.01.0) using the Kaplan–Meier survivor function procedure.[22]

Each structure is given as a SMILES string. Where two headings read alike, the source gives them in different places.

Regarding `CCCCCCCCCC1(C)OCC(CO)O1` (stereo not drawn) [22a], in the assay with Aedes albopictus [1] (0.081 µg/cm2), the pest or weed control at 0.081 µg/cm2, 0.081 µg/cm2 was 2.83%. Further, in the assay on Aedes albopictus [1] (0.17 µg/cm2), the pest or weed control at 0.17 µg/cm2, 0.17 µg/cm2 came to 32.6%. Also, the pest or weed control at 0.33 µg/cm2, 0.33 µg/cm2 in the assay with Aedes albopictus [1] (0.33 µg/cm2) came out at 50%. Besides, in the assay with Aedes albopictus [1] (0.5 µg/cm2), the pest or weed control at 0.5 µg/cm2, 0.5 µg/cm2 was found to be 37.5%. The pest or weed control at 0.83 µg/cm2, 0.83 µg/cm2 with Aedes albopictus [1] (0.83 µg/cm2) was found to be 65.4%. Further, the pest or weed control at 1.7 µg/cm2, 1.7 µg/cm2 in the assay with Aedes albopictus [1] (1.7 µg/cm2) was 94.2%. Also, in the assay with Aedes albopictus [1] (8.3 µg/cm2), the pest or weed control at 8.3 µg/cm2, 8.3 µg/cm2 was determined as 100%. In addition, the pest or weed control at 16.7 µg/cm2, 16.7 µg/cm2 in the assay with Aedes albopictus [1] (16.7 µg/cm2) amounted to 100%. Moreover, the pest or weed control at 83.3 µg/cm2, 83.3 µg/cm2 in the assay on Aedes albopictus [1] (83.3 µg/cm2) came out at 100%. In addition, in the assay with Aedes albopictus [1], the “Protection efficacy (dose to obtain complete protection (100%) from bite attempts)” value is listed as 8.3 μg/cm^2. In addition, the pest or weed control at 0.17 mg/cm2, 0.17 mg/cm2 amounted to 100% with Aedes albopictus [2] (0.17mg/cm2, 1 h); 100% with Aedes albopictus [2] (0.17mg/cm2, 2 h); 98.9% in the assay on Aedes albopictus [2] (0.17mg/cm2, 3 h); 98.2% in the assay on Aedes albopictus [2] (0.17mg/cm2, 4 h); 95.2% with Aedes albopictus [2] (0.17mg/cm2, 5 h); 99.5% in the assay on Aedes albopictus [2] (0.17mg/cm2, 6 h). The pest or weed control at 0.17 mg/cm2, 0.17 mg/cm2 in the assay with Aedes albopictus [2] (0.17mg/cm2, 7 h) is 96.6%; in the assay with Aedes albopictus [2] (0.17mg/cm2, 8 h) it was 90%. In addition, the “Average PT >95% (% coefficient of variation)” value in the assay on Aedes albopictus [2] is 420 (3.5) min. In addition, the “Estimated 100% PT (complete protection time, mean±SE)” value with Aedes albopictus [2] is 380 ± 105 min. Also, the “Protection time (95% protection)” value in the assay on Aedes albopictus [2] came out at 7 h.

Consider `CCCCCCCC1OCC(CO)O1` (mixture of isomers) [9a], for which the “Protection efficacy PE%” value with Aedes albopictus [1] (0.081 µg/cm2) is 0%; with Aedes albopictus [1] (0.17 µg/cm2) it was 33.33%; with Aedes albopictus [1] (0.33 µg/cm2), 72.85%; in the assay with Aedes albopictus [1] (0.5 µg/cm2) it was 74.69%; in the assay with Aedes albopictus [1] (0.83 µg/cm2), 82.72%; in the assay with Aedes albopictus [1] (1.7 µg/cm2), 90.12%. Moreover, the “Protection efficacy PE%” value with Aedes albopictus [1] (8.3 µg/cm2), with Aedes albopictus [1] (16.7 µg/cm2) and in the assay with Aedes albopictus [1] (83.3 µg/cm2) was 100% in each case. The “100% PE” value in the assay with Aedes albopictus [1] was found to be 8.3 µg/cm2. Also, the “Protection efficacy (dose to obtain complete protection (100%) from bite attempts)” value with Aedes albopictus [1] was found to be 8.3 μg/cm^2. Moreover, the “Protection time PE%” value in the assay with Aedes albopictus [2] (0.17mg/cm2, 0 min) is given as 100%; with Aedes albopictus [2] (0.17mg/cm2, 1 h), 99.77%; with Aedes albopictus [2] (0.17mg/cm2, 2 h) it was 99.42%; in the assay with Aedes albopictus [2] (0.17mg/cm2, 3 h) it was 100%; in the assay on Aedes albopictus [2] (0.17mg/cm2, 4 h) it was 100%; with Aedes albopictus [2] (0.17mg/cm2, 5 h) it was 99.61%. Besides, the “Protection time PE%” value with Aedes albopictus [2] (0.17mg/cm2, 6 h) amounted to 95.75%; with Aedes albopictus [2] (0.17mg/cm2, 7 h), 95.88%; with Aedes albopictus [2] (0.17mg/cm2, 8 h), 94.12%. The “Average PT >95% (% coefficient of variation)” value with Aedes albopictus [2] is 420 (4.5) min. Also, the “Estimated 100% PT (complete protection time, mean±SE)” value in the assay on Aedes albopictus [2] is 307 ± 53 min. Moreover, the “Protection time (95% protection)” value in the assay on Aedes albopictus [2] was 7 h.

With `CCCCCCCC1(C)OCC(CO)O1` (stereo not drawn) [15a], the pest or weed control at 0.081 µg/cm2, 0.081 µg/cm2 in the assay with Aedes albopictus [1] (0.081 µg/cm2) stood at 7.74%. The pest or weed control at 0.17 µg/cm2, 0.17 µg/cm2 in the assay with Aedes albopictus [1] (0.17 µg/cm2) turned out to be 35.8%. Besides, in the assay with Aedes albopictus [1] (0.33 µg/cm2), the pest or weed control at 0.33 µg/cm2, 0.33 µg/cm2 worked out at 45.9%. In the assay on Aedes albopictus [1] (0.5 µg/cm2), the pest or weed control at 0.5 µg/cm2, 0.5 µg/cm2 came to 54.7%. For the same molecule, in the assay on Aedes albopictus [1] (0.83 µg/cm2), the pest or weed control at 0.83 µg/cm2, 0.83 µg/cm2 was found to be 62.2%. The pest or weed control at 1.7 µg/cm2, 1.7 µg/cm2 in the assay with Aedes albopictus [1] (1.7 µg/cm2) came to 89.4%. In addition, the pest or weed control at 8.3 µg/cm2, 8.3 µg/cm2 with Aedes albopictus [1] (8.3 µg/cm2) turned out to be 98.8%. Also, the pest or weed control at 16.7 µg/cm2, 16.7 µg/cm2 in the assay with Aedes albopictus [1] (16.7 µg/cm2) was found to be 100%. Also, the pest or weed control at 83.3 µg/cm2, 83.3 µg/cm2 with Aedes albopictus [1] (83.3 µg/cm2) turned out to be 100%. Also, the “100% PE” value in the assay on Aedes albopictus [1] came to 16.7 µg/cm2. In addition, the “Protection efficacy (dose to obtain complete protection (100%) from bite attempts)” value with Aedes albopictus [1] is listed as 16.7 μg/cm^2. In addition, the pest or weed control at 0.17 mg/cm2, 0.17 mg/cm2 in the assay with Aedes albopictus [2] (0.17mg/cm2, 1 h) is 100%; in the assay with Aedes albopictus [2] (0.17mg/cm2, 2 h), 99.6%; in the assay with Aedes albopictus [2] (0.17mg/cm2, 3 h) it was 100%; with Aedes albopictus [2] (0.17mg/cm2, 4 h) it was 100%; with Aedes albopictus [2] (0.17mg/cm2, 5 h), 97.7%; with Aedes albopictus [2] (0.17mg/cm2, 6 h), 98.5%. The pest or weed control at 0.17 mg/cm2, 0.17 mg/cm2 is 97.5% in the assay with Aedes albopictus [2] (0.17mg/cm2, 7 h) and 96.7% with Aedes albopictus [2] (0.17mg/cm2, 8 h). The “Average PT >95% (% coefficient of variation)” value with Aedes albopictus [2] is given as 480 (6.0) min. Further, the “Estimated 100% PT (complete protection time, mean±SE)” value in the assay with Aedes albopictus [2] is 380 ± 61 min. The “Protection time (95% protection)” value with Aedes albopictus [2] amounted to 8 h.
